Test results: patent US8912318B2, “Nucleobase-functionalized conformationally restricted nucleotides and oligonucleotides for targeting nucleic acids” (University of Idaho, priority 2009, dated 2014)
Where two headings read alike, the source gives them in different places.

How the values were obtained:
complementary DNA = test: UV thermal denaturation of 13-mer fluorophore probes with complementary DNA; type: binding; conditions: B = A
mismatched DNA targets = test: UV thermal denaturation of 13-mer fluorophore probes with mismatched DNA targets; type: binding; conditions: for mismatch ΔTm: mismatched vs complementary duplex; for Tm / ΔTm: DNA: 3′-d(GCG TTG BGT TGC G); for ΔTm: relative to B = A
[1] = tested on: complementary or mismatched DNA targets; test: Fluorescence quantum yields and extinction coefficients with DNA targets; type: physicochemical
[2] = tested on: complementary or mismatched DNA targets; conditions: cited from earlier work
[3] = tested on: complementary or mismatched DNA targets; test: Steady-state fluorescence emission intensity with DNA targets; conditions: for discrimination factor Im/Imm, range: intensity of duplex with complementary DNA divided by intensity of SSP or mismatched duplexes
[4] = tested on: dsDNA target (SEQ ID NO: 4 : SEQ ID NO: 5), B:B′ = A:T; test: Thermal denaturation of matched triplexes in the presence of Mg2+ ions; type: binding; conditions: A:T (match); 10 mM MgCl2
Protocol: (§1) Concentrations of all TFOs were determined using the extinction coefficient of 118500 L×(mol×cm)-1. 1 mL solution containing 1.0 nmol of each strand was denatured by heating and subsequently cooled to the starting temperature of the experiment in quartz optical cells with a path-length of 1.0 cm. Thermal denaturation profiles were recorded on a Cary 100 UV/VIS spectrophotometer equipped with a 12-cell Peltier temperature controller using a ramp of 0.5° C./min. Thermal denaturation temperatures (Tm) for triplex to duplex transitions were determined as the first derivative of difference thermal denaturation profiles (dA260 vs. T), which were obtained by subtracting the thermal denaturation profile of the dsDNA target (always included as one of the samples in multicell holder of UV-Vis spectrophotometer) from the raw thermal denaturation profile of the TFO+dsDNA (FIG. 13). Reported Tm-values are an average of at least two experiments within ±1.0° C.

[5] = tested on: dsDNA target (SEQ ID NO: 2 : SEQ ID NO: 3); test: UV thermal denaturation of triplexes formed by TFOs with dsDNA; type: binding; conditions: for Tm of triplex: pH 7.0 phosphate buffer, 140 mM KCl, 1.0 μM each strand; for ΔTm/mod of triplex: relative to reference DNA TFO T1, per modification
[6] = tested on: Hoogsteen mismatched dsDNA targets (SEQ ID NO: 4 : SEQ ID NO: 5), B:B′ = T:A, C:G, G:C; test: Thermal denaturation of Hoogsteen mismatched triplexes in the presence of Mg2+ ions; type: binding; conditions: for Tm of triplex: 10 mM MgCl2; for ΔTm: change relative to matched triplex
Protocol: as §1

mismatched RNA targets = test: UV thermal denaturation of 13-mer probes with mismatched RNA targets; type: binding
complementary RNA = test: UV thermal denaturation of 13-mer probes with complementary RNA; type: binding; conditions: B = A
[7] = complementary DNA, [Na+] = 110 mM, pH 7.0, 1.0 μM each strand
[8] = vs. the C-mismatched DNA target

For “ON1: unmodified reference strand 5′-CG CAA ATA AAC GC (DNA CGCAAATAAACGC; unmodified DNA) [reference compound]”, which Tm (complementary DNA; [7]) is on record?
The Tm was 48.5 °C.

And the “mismatch ΔTm” value (mismatched DNA targets; DNA target B = C)?
The value was −10.0 °C.

And the “mismatch ΔTm” value (mismatched DNA targets; DNA target B = G)?
Its value is −5.0 °C.

What about the “mismatch ΔTm” value (mismatched DNA targets; DNA target B = T) of the same molecule?
The value was −9.0 °C.

Which “fluorescence quantum yield ΦF” value ([1]; in MeOH, relative to 9,10-diphenylanthracene) does the source give for `O=C(O)CCCc1ccc2ccc3cccc4ccc1c2c34` [pyrenebutanoic acid] here?
The value was 0.069.

What about the “fluorescence quantum yield ΦF, reported value” [2] of the same molecule?
Its value is 0.065.

Which “discrimination factor Im/Imm, range” value [3] does the source give for “ON13: 5′-CG CAA AP′A AAC GC (DNA CGCAAANAAACGC; modified nucleotide P', chemistry not fully specified)” here?
The value was 3.4-14.1.

With `O=C(NCC#Cc1cn([C@H]2C[C@H](O)[C@@H](CO)O2)c(=O)[nH]c1=O)c1ccc2ccc3cccc4ccc1c2c34` [P″, 5-[3-(1-pyrenecarboxamido)propynyl]-2′-deoxyuridine] as the molecule, how does the “Fluorescence quantum yield (φF)” value ([1]; DNA target B = A, T = 5° C.) read?
Its value is 0.33-0.58.

For “V1′: TFO TTT TT^mC TBT ^mCT^mC T^mCT, B = V′ (DNA TTTTTNTNTNTNTNT; 5-methyl-C, modified nucleotide V', chemistry not fully specified)”, which Tm of triplex [4] is on record?
The Tm of triplex was 46.0 °C.

What about the Tm of triplex [5] of the same molecule?
Its Tm of triplex is 37.0 °C.

And the ΔTm/mod of triplex [5]?
The ΔTm/mod of triplex was “+8.0 °C”.

And the Tm of triplex ([6]; C:G mismatch)?
The Tm of triplex was 14.5 °C.

And the ΔTm ([6]; C:G mismatch)?
Its ΔTm is −31.5 °C.

What about the Tm of triplex ([6]; G:C mismatch) of the same molecule?
The Tm of triplex was 25.5 °C.

And the ΔTm ([6]; G:C mismatch)?
Its ΔTm is −20.5 °C.

And the Tm of triplex ([6]; T:A mismatch)?
The Tm of triplex was 11.0 °C.

What about the ΔTm ([6]; T:A mismatch) of the same molecule?
The ΔTm was −36.0 °C.

Which “discrimination factor Im/Imm, range” value [3] does the source give for “ON10: 5′-CG CAA CPC AAC GC (DNA CGCAACNCAACGC; listed as DNA, chemistry not fully specified)” here?
The value was 7.3-15.9.

And the Tm (complementary DNA; DNA: 3′-d(GCG TTG BGT TGC G))?
Its Tm is 52.5 °C.

What about the Tm (mismatched DNA targets; B = C) of the same molecule?
The Tm was 43.0 °C.

What about the ΔTm (mismatched DNA targets; B = C) of the same molecule?
Its ΔTm is “(−9.5) ° C”.

What about the Tm (mismatched DNA targets; B = G) of the same molecule?
Its Tm is 48.0 °C.

What about the ΔTm (mismatched DNA targets; B = G) of the same molecule?
The ΔTm was “(−4.5) ° C”.

What about the Tm (mismatched DNA targets; B = T) of the same molecule?
Its Tm is 46.0 °C.

And the ΔTm (mismatched DNA targets; B = T)?
Its ΔTm is “(−6.5) ° C”.

With “SEQ ID NO: 9: 5′-d(CGC AAC βCA ACG C (DNA CGCAACNCAACGC; β modified nucleotide, chemistry not fully specified)” as the molecule, how does the Tm (complementary DNA; DNA: 3′-d(GCG TTG BGT TGC G)) read?
Its Tm is 56.5 °C.

What about the Tm (mismatched DNA targets; B = C) of the same molecule?
Its Tm is 43.0 °C.

And the ΔTm (mismatched DNA targets; B = C)?
Its ΔTm is “(−13.0) ° C”.

And the Tm (mismatched DNA targets; B = G)?
Its Tm is 46.5 °C.

And the ΔTm (mismatched DNA targets; B = G)?
The ΔTm was “(−10.0) ° C”.

What about the Tm (mismatched DNA targets; B = T) of the same molecule?
Its Tm is 48.5 °C.

And the ΔTm (mismatched DNA targets; B = T)?
Its ΔTm is “(−8.0) ° C”.

With “Y1′: TFO TTT TT^mC TBT ^mCT^mC T^mCT, B = Y′ (DNA TTTTTNTNTNTNTNT; 5-methyl-C, modified nucleotide Y', chemistry not fully specified)” as the molecule, how does the Tm of triplex [4] read?
The Tm of triplex was 47.5 °C.

And the Tm of triplex [5]?
The Tm of triplex was 37.5 °C.

And the ΔTm/mod of triplex [5]?
Its ΔTm/mod of triplex is “+8.5 °C”.

And the Tm of triplex ([6]; C:G mismatch)?
Its Tm of triplex is 13.5 °C.

What about the ΔTm ([6]; C:G mismatch) of the same molecule?
The ΔTm was −34.0 °C.

What about the Tm of triplex ([6]; G:C mismatch) of the same molecule?
Its Tm of triplex is 24.5 °C.

And the ΔTm ([6]; G:C mismatch)?
Its ΔTm is −23.0 °C.

What about the Tm of triplex ([6]; T:A mismatch) of the same molecule?
Its Tm of triplex is 12.0 °C.

What about the ΔTm ([6]; T:A mismatch) of the same molecule?
Its ΔTm is −35.5 °C.

With “ON14: 5′-CG CAA CP′C AAC GC (DNA CGCAACNCAACGC; modified nucleotide P', chemistry not fully specified)” as the molecule, how does the “ΦF,m/ΦF,mm” value [1, 8] read?
Its value is about 3.2.

And the “discrimination factor Im/Imm” value [3, 8]?
Its value is 5.8.

What about the Tm (complementary DNA; DNA: 3′-d(GCG TTG BGT TGC G)) of the same molecule?
Its Tm is 51.5 °C.

And the Tm (mismatched DNA targets; B = C)?
The Tm was 40.5 °C.

What about the ΔTm (mismatched DNA targets; B = C) of the same molecule?
The ΔTm was “(−11.5) ° C”.

And the Tm (mismatched DNA targets; B = G)?
Its Tm is 44.5 °C.

And the ΔTm (mismatched DNA targets; B = G)?
The ΔTm was “(−7.0) ° C”.

What about the Tm (mismatched DNA targets; B = T) of the same molecule?
The Tm was 44.5 °C.

What about the ΔTm (mismatched DNA targets; B = T) of the same molecule?
The ΔTm was “(−7.0) ° C”.

Which Tm (complementary DNA; DNA: 3′-d(GCG TTG BGT TGC G)) does the source give for “SEQ ID NO: 11: 5′-d(CGC AAC αCA ACG C (DNA CGCAACNCAACGC; α modified nucleotide, chemistry not fully specified)” here?
The Tm was 44.5 °C.

What about the Tm (mismatched DNA targets; B = C) of the same molecule?
The Tm was 43.0 °C.

What about the ΔTm (mismatched DNA targets; B = C) of the same molecule?
Its ΔTm is “(−1.5) ° C”.

What about the Tm (mismatched DNA targets; B = G) of the same molecule?
Its Tm is 46.0 °C.

What about the ΔTm (mismatched DNA targets; B = G) of the same molecule?
Its ΔTm is “(+1.5) ° C”.

And the Tm (mismatched DNA targets; B = T)?
Its Tm is 45.0 °C.

And the ΔTm (mismatched DNA targets; B = T)?
Its ΔTm is “(+0.5) ° C”.

For “X1′: TFO TTT TT^mC TBT ^mCT^mC T^mCT, B = X′ (DNA TTTTTNTNTNTNTNT; 5-methyl-C, modified nucleotide X', chemistry not fully specified) [reference compound]”, which Tm of triplex [4] is on record?
Its Tm of triplex is 45.0 °C.

What about the Tm of triplex [5] of the same molecule?
The Tm of triplex was 35.5 °C.

What about the ΔTm/mod of triplex [5] of the same molecule?
Its ΔTm/mod of triplex is “+6.5 °C”.

What about the Tm of triplex ([6]; C:G mismatch) of the same molecule?
The Tm of triplex was 15.5 °C.

And the ΔTm ([6]; C:G mismatch)?
The ΔTm was −29.5 °C.

And the Tm of triplex ([6]; G:C mismatch)?
Its Tm of triplex is 22.5 °C.

What about the ΔTm ([6]; G:C mismatch) of the same molecule?
The ΔTm was −22.5 °C.

What about the Tm of triplex ([6]; T:A mismatch) of the same molecule?
Its Tm of triplex is 10.0 °C.

What about the ΔTm ([6]; T:A mismatch) of the same molecule?
The ΔTm was −35.0 °C.

With “ON11: 5′-CG CAA GPG AAC GC (DNA CGCAAGNGAACGC; listed as DNA, chemistry not fully specified)” as the molecule, how does the “discrimination factor Im/Imm, range” value [3] read?
Its value is 8.3-41.9.

What does the source list for “ON2: unmodified reference strand 5′-CG CAA CTC AAC GC (DNA CGCAACTCAACGC; DNA, backbone not given here) [reference compound]”?
mismatch DTm (mismatched RNA targets; RNA target B = C): −15.5 °C; mismatch DTm (mismatched RNA targets; RNA target B = G): −3.0 °C; mismatch DTm (mismatched RNA targets; RNA target B = U): −13.5 °C; Tm (complementary RNA): 51.5 °C; Tm (complementary DNA; DNA: 3′-d(GCG TTG BGT TGC G)): 55.5 °C; Tm (complementary DNA; [7]): 55.5 °C; mismatch ΔTm (mismatched DNA targets; DNA target B = C): −13.5 °C; mismatch ΔTm (mismatched DNA targets; DNA target B = G): −7.0 °C; mismatch ΔTm (mismatched DNA targets; DNA target B = T): −9.0 °C; Tm (mismatched DNA targets; B = C): 42.0 °C; ΔTm (mismatched DNA targets; B = C): (−13.5) ° C.; Tm (mismatched DNA targets; B = G): 48.5 °C; ΔTm (mismatched DNA targets; B = G): (−7.0) ° C.; Tm (mismatched DNA targets; B = T): 46.5 °C; ΔTm (mismatched DNA targets; B = T): (−9.0) ° C.

For “ON16: 5′-CG CAA TP′T AAC GC (DNA CGCAATNTAACGC; modified nucleotide P', chemistry not fully specified)”, which “discrimination factor Im/Imm, range” value [3] is on record?
The value was 2.9-11.4.

What does the source list for “SEQ ID NO: 10: 5′-d(CGC AAC γCA ACG C (DNA CGCAACNCAACGC; γ modified nucleotide, chemistry not fully specified)”?
Tm (complementary DNA; DNA: 3′-d(GCG TTG BGT TGC G)): 47.0 °C; Tm (mismatched DNA targets; B = C): 45.5 °C; ΔTm (mismatched DNA targets; B = C): (−1.5) ° C.; Tm (mismatched DNA targets; B = G): 46.5 °C; ΔTm (mismatched DNA targets; B = G): (-0.5) ° C.; Tm (mismatched DNA targets; B = T): 45.5 °C; ΔTm (mismatched DNA targets; B = T): (−1.5) ° C.

For `c1ccc(-c2c3ccccc3c(-c3ccccc3)c3ccccc23)cc1` [9,10-diphenylanthracene], which “fluorescence quantum yield ΦF” value [2] is on record?
Its value is 0.95.
